{"source": "patent US7265091B2", "about": "“Methods and compositions for treating male erectile dysfunction” (The Regents of the University of California, priority 2000, dated 2007)", "key": {"[1]": {"test_system": "Rat Model of Traumatic Arteriogenic Erectile Dysfunction", "description": "Bipolar platinum-wire electrodes were used to stimulate the cavernous nerve. The exposed end of the electrodes were hooked around the nerve to be stimulated, with the positive electrode being positioned proximally and the negative electrode two to three mm distally. Stimulus parameters were 1.5 volts, frequency of 20 pulses per second, pulse width of 0.2 msec, and the duration of 50 seconds. Intracavernous pressure was monitored and recorded by inserting a number 23 scalp vein needle to one of the crura and connected to a pressure monitor."}, "[2]": {"test_system": "dorsal nerve, intracavernosal smooth muscle and endothelium", "settings": "ligated rats, 4 μg of VEGF", "method": "The penis was dissected, thinly sliced (˜1 mm thick) and placed in Karnovsky's fixative (1% para-formaldehyde/3% glutaraldehyde/0.1 M sodium cacodylate buffer, pH 7.4) at room temperature for 30 minutes and then stored at 4° C. The fixed tissue was then rinsed in buffer, post-fixed in 2% aqueous OsO4, and stained en bloc with uranyl acetate before being dehydrated in ethanol, cleared in propyline oxide, and embedded in eponate 12 (Ted Pella Co., Redding, Calif.). Thick sections were cut and stained with toludine blue, examined under light microscope to select the area to be thin-sectioned. Thin sections were cut by Leica ultracut E microtome (Bannockburn, Ill.), stained with uranyl acetate and Reynold's Lead to enhance contrast and examined under Philips Tecnai 10 electron microscope (Eidhoven, Netherlands)."}, "[3]": {"test_system": "venogenic erectile dysfunction in castrated rats", "assay": "Pharmacologic cavernosometry, prevention trial in castrated rats (Experiment 2)", "type": "in vivo, rat", "settings": "castrated rats treated at castration, cavernosometry 9 weeks after castration", "description": "For the prevention trial of VEGF in rats with venogenic erectile ED, adult males were castrated and immediately treated with hormone, intracavernosal VEGF. […] Control animals received an silastic implant containing saline (n=3), an intracavernous injection of normal saline (n=3) or an […] transfection vector expressing lacZ reporter gene without the VEGF gene (AAV-LacZ, n=11).\n(§1) A 1.5 cm oblique incision was made in the lower abdominal skin extending from the midline just above the penile hilum to below the level of the glans about 1 cm lateral to the midline. The skin was sharply dissected from the anterior surface of the penis and then the penis was retracted anteriorly using a towel clamp placed around it atraumatically with the foreskin left intact. Using blunt dissection the penile base and crura were exposed. The ischiocavernosus muscles were sharply dissected off the anterior surface of the crus until the white of the tunica albuginea of the corpora cavernosa was identified. The crus was then gently cannulated using a 23 gage butterfly needle, and saline flush with a visual erectile response was used to confirm that the needle tip was truly intracavernosal. The intracavernosal injections were then administered with either VEGF protein (Calbiochem, La Jolla, Calif. #676472) at the dosage 4 ug/injection (in 0.1 cc PBS with 0.1% BSA), AAV-VEGF (10^10 viral particles in 0.1 cc NS), AAV-LacZ (10^10 viral particles in 0.1 cc NS), or 0.1 ml NS alone. The AAV-VEGF and AAV-LacZ constructs were a generous gift from Dr. Yuet W. Kan (Howard Hughes Medical Research Institute, San Francisco, Calif.).^19,20 Following injection, the needle was left in place for 5 minutes and then removed to allow the medication to diffuse throughout the cavernosal space. Immediately thereafter, pinpoint electrocautery was applied to the needle hole for hemostasis and then the wound was closed and the animal recovered as above.\nFollowing castration, testosterone- or saline-filled silastic implants were placed in the subcutaneous tissue of the anterior abdominal wall, as previously described.^17 Implants were prepared using sterile silastic tubing (Dow Coming, Midland, Mich. #602-265, inner diameter 0.062″) that was filled with testosterone propionate powder (Sigma Chemical, St. Louis, Mo.) with the aid of wall suction.\nTo perform pharmacologic cavemosometry, both the right and left crura were separately cannulated using 23 gauge butterfly needles as described above. One cannula was flushed with sterile heparinized saline (100 U heparin/ml NS) and attached to a pressure detector for continuous intracorporal pressure (ICP) monitoring as previously described.^11 The contralateral cannula was attached to an infusion pump (Harvard Pump, Southwick, Mass. #55-2222), filled with sterile dilute heparinized saline (20 U heparin/ml NS). The baseline ICP was recorded (flaccid ICP) and then a dose of papavarine (1 mg in 0.1 cc NS) was administered through the infusion cannula. Five minutes was allowed for the papavarine to diffuse throughout the corpora and then the infusion cannula was flushed with heparinized saline and the pressure monitor cannula vented to normalize ICP after flushing. After 5 minutes more, the ICP was again recorded (ICP after papavarine) and the infusion started. An infusion rate of 0.05 ml/min was started and increased (by 0.05 ml/min every 10 seconds) until the ICP started to rise. Subsequent increases in inflow rate were made only after the ICP reached a plateau pressure. By slowly adjusting the inflow rate, an intracorporal pressure of 100 cm H2O (erectile pressure) was reached and the infusion rate required to maintain this pressure recorded (the maintenance rate). After this pressure was steady for 20 seconds, the infusion was terminated and the change in ICP over the subsequent 60 seconds was recorded (the drop rate)."}, "[4]": {"test_system": "established venogenic erectile dysfunction in castrated rats", "settings": "castrated rats with venous leak, 1 month following VEGF treatment", "method": "These animals (n=8) were treated with intracavernous VEGF protein and then after one month cavernosometry repeated to measure the effect of VEGF treatment.\nas §1\nTo perform pharmacologic cavemosometry, both the right and left crura were separately cannulated using 23 gauge butterfly needles as described above. […] The baseline ICP was recorded (flaccid ICP) and then a dose of papavarine (1 mg in 0.1 cc NS) was administered through the infusion cannula. […] After 5 minutes more, the ICP was again recorded (ICP after papavarine) and the infusion started. […] By slowly adjusting the inflow rate, an intracorporal pressure of 100 cm H2O (erectile pressure) was reached and the infusion rate required to maintain this pressure recorded (the maintenance rate). After this pressure was steady for 20 seconds, the infusion was terminated and the change in ICP over the subsequent 60 seconds was recorded (the drop rate)."}, "[5]": {"test_system": "Rodent Model of Neurogenic Erectile Dysfunction", "settings": "VEGF 4 ug intracavernous, three months after bilateral cavernous nerve freezing", "experimental": "Seventeen 3 months old Sprague Dowry rats underwent bilateral freezing of the cavernous nerves with a thermocouple immersed in liquid nitrogen. Through an abdominal incision both cavernous nerves were isolated lateral to the prostate and frozen with thermocouple for one minute twice (temperature cycle −130° C. to −3° C.). Minutes later, intracavernous injection of saline (n=7) or VEGF, 4 ug, (n=9) was given. Three months later, all rats underwent re-exploration and electrostimulation of the cavernous nerves to assess erectile function. Eight additional rats underwent exploration only (sham group)"}}, "note": "Several values for one entry are separate records, joined by “and”; a condition that tells them apart may be missing. Identical values can stand only once. Like-named read-outs stand apart in the source and are kept apart here."}
{"substance": "VEGF", "values": [{"measurement": "Peak sustained intracavernous pressure during electrostimulation of the cavernous nerves", "setting": "[1]; 2 μg VEGF intracavernous, Week 1", "value": "23.50 ± 2.38", "unit": "cm H20"}, {"measurement": "Peak sustained intracavernous pressure during electrostimulation of the cavernous nerves", "setting": "[1]; 2 μg VEGF intracavernous, Week 2", "value": "43.00 ± 8.37", "unit": "cm H20"}, {"measurement": "Peak sustained intracavernous pressure during electrostimulation of the cavernous nerves", "setting": "[1]; 2 μg VEGF intracavernous, Week 6", "value": "69.00 ± 8.83", "unit": "cm H20"}, {"measurement": "Peak sustained intracavernous pressure during electrostimulation of the cavernous nerves", "setting": "[1]; 4 μg VEGF intracavernous, Week 1", "value": "71.17 ± 16.89", "unit": "cm H20"}, {"measurement": "Peak sustained intracavernous pressure during electrostimulation of the cavernous nerves", "setting": "[1]; 4 μg VEGF intracavernous, Week 2", "value": "86.25 ± 8.18", "unit": "cm H20"}, {"measurement": "Peak sustained intracavernous pressure during electrostimulation of the cavernous nerves", "setting": "[1]; 4 μg VEGF intracavernous, Week 6", "value": "96.67 ± 13.50", "unit": "cm H20"}, {"measurement": "improvement in intracavernous pressure compared with the PBS-treated group", "setting": "[1]; 2-μg and 4-μg groups, week 6", "value": "statistically significant improvement"}, {"measurement": "recovery of erectile function", "setting": "[1]; 4-μg group, weeks 1 and 2", "value": "moderate recovery"}, {"measurement": "appearance of endothelium of sinusoids and capillaries", "setting": "[2]; 2 and 6-week groups", "value": "endothelial cell hypertrophy and hyperplasia"}, {"measurement": "appearance of intracavernosal smooth muscle cells", "setting": "[2]; 2 and 6-week groups", "value": "most of the smooth muscle cells appeared normal"}, {"measurement": "mean diameter of the myelinated axons, dorsal nerve", "setting": "[2]; week 6", "value": "6.19±2.38", "unit": "μm"}, {"measurement": "mean diameter of the nonmyelinated axons, dorsal nerve", "setting": "[2]; week 6", "value": "0.82±0.45", "unit": "μm"}, {"measurement": "Drop Rate in 1 min.", "setting": "[3]", "value": "9.0(+/−20) cm H2O"}, {"measurement": "Flaccid ICP", "setting": "[3]", "value": 27.8, "unit": "cm H2O"}, {"measurement": "ICP After Papavarine", "setting": "[3]", "value": "85.0(+/−28) cm H2O"}, {"measurement": "Maintenance Rate", "setting": "[3]", "value": "0.04(+/−0.09) ml/min"}, {"measurement": "Drop Rate in 1 min.", "setting": "[4]", "value": "17.4 cm H2O and 17.4(+/−24) cm H2O"}, {"measurement": "Flaccid ICP", "setting": "[4]", "value": 25.3, "unit": "cm H2O"}, {"measurement": "ICP After Papavarine", "setting": "[4]", "value": "84 cm H2O and 83.9 cm H2O"}, {"measurement": "Maintenance Rate", "setting": "[4]", "value": "0.08 ml/min and 0.08(+/−0.15) ml/min"}, {"measurement": "maximal intracavernous pressure", "setting": "[5]", "value": "72.78±10.87", "unit": "cm H2O"}]}
